The record followed here is patent publication US9447075B2, “Pyridazine derivatives as EAAT2 activators” (The Brigham and Women's Hospital, Inc., priority 2011, dated 2016).

The subject of assay [1] is EAAT2. Nature of the assay: EAAT2 protein levels in PA-EAAT2 cells by Western blot. It is filed as cell-based, human. On the procedure:
All of the derivates of 1 were initially evaluated in PA-EAAT2 cells^3 (a primary astrocyte line stably expressing EAAT2 mRNAs) following compound (10 μM) incubation for 4 and 24 h before harvesting and measuring EAAT2 levels by Western blot analysis. The fold increases in EAAT2 protein levels relative to DMSO controls are reported (Tables 1-4).
(§1) Characterization and efficacy studies of a compound, Compound 212320 (FIG. 6A) is shown. […] In the absence of serum, PA-EAAT2 cells express low amounts of EAAT2 protein, although the recombinant EAAT2 mRNA are expressed (translational silencing); however, EAAT2 protein levels are increased when an activator is added to the culture (translational activation). This cell line was used for high-throughput screening to identify EAAT2 translational activators. To prioritize candidate compounds, we initially evaluated activation of EAAT2 protein in PA-EAAT2 cells. Promising compounds were further evaluated in primary dissociated neuron and astrocyte mixed cultures and then in mice. FIG. 6 presents the characterization of Compound 212320 in PA-EAAT2 cells. Compound 212320 increased EAAT2 protein levels in a dose—(FIG. 6B) and time—(FIG. 6C) dependent manner. Importantly, the induction occurred in a short amount of time (within 1-2 hr) and was sustained even up to 72 hr (data not show). Additionally, induction occurred at low nanomolar concentrations. […] (FIG. 6D).
A general note: In western blotting, separated proteins are transferred to a membrane and probed.

For assay [2], the system named is EAAT2. Nature of the assay: [3H]glutamate uptake assay in PA-EAAT2 cells. It is filed as cell-based, human. Conditions: PA-EAAT2 cells (FIG. 6D). On the procedure: as §1
The next assay relates to SOD1(G93A) mice. Put plainly: ALS model (SOD1(G93A) mouse model). The format is in vivo. The source says:
Guidelines established by the ENMC Group were followed (see Ludolph, A. C., et al. Guidelines for the preclinical in vivo evaluation of pharmacological active drugs for ALS/MND: report on the 142nd ENMC international workshop. Amyotroph Lateral Scler 8, 217-223 (2007))^1, which included the use of gender matched mice (i.e. equal number of males and females in each experimental group), use of littermate matched mice (i.e. the littermate of a therapeutic mouse is used in the control group) and use of mice with the same copy number of the SOD1 transgene. SOD1(G93A) mice received Compound 212320 (shown below, shown also as compound 7-4 in FIG. 1) at 40 mg/kg in 500 μl of 1% DMSO/1% polyethylene glycol 400/0.2% Tween 80/10% hydroxypropyl-β-cyclodextrin/saline starting at 84 days of age (6 times/week, at the same time each day) until death or harvested at 120-days of age for analysis. Western blotting, cresyl violet staining and immunofluorescence staining were performed as previously described in Chang, Y., et al. Messenger RNA oxidation occurs early in disease pathogenesis and promotes motor neuron degeneration in ALS. PLoS One 3, e2849 (2008).
Motor function was determined by measuring peak force using a digital grip dynamometer outfitted with a hind limb pull bar assembly (Columbus Instruments). Measurements started from 70 days of age (three times a week, on the same day of each week and at the same time of each scheduled day) until the mouse loses all strength. Six repetitions were conducted and the average was determined for each point. The examiners were unaware of the treatment of the mice. Food and water were placed on the cage floor when mice began to show motor deficits. […] This time point was recorded as the time of death for survival in days.
Referring to FIG. 2, Compound 212320 delayed motor function decline and extended life span in SOD1(G93A) mice. […] Data were analyzed using the dynamic fitting nonlinear regression analysis. […] Data were analyzed using Kaplan-Meier survival analysis. […] Spinal cords from 120-day-old mice were analyzed.

The subject of another assay is EAAT2 mRNA. Put plainly: EAAT2 mRNA in brain by quantitative real-time RT-PCR after i.p. administration. It is filed as in vivo, mouse. Conditions: FIG. 8D. On the procedure:
We next examined EAAT2 protein levels and glutamate uptake activities in brain following i.p. administration of Compound 212320 in C57BL/6 mice. Plasma membrane vesicles were prepared from mouse forebrains to measure functional EAAT2 protein. After a single i.p. dose of Compound 212320 at 40 mg/kg, EAAT2 protein levels and associated glutamate uptake increased to ˜1.5-2-fold at 2 hr and to ˜2-3-fold from 8 hr to 24 hr post-injection (FIG. 8B). Even at 72 hr, a ˜1.5 fold increase in EAAT2 protein levels could still be detected (data not shown). In addition, Compound 212320-induced EAAT2 protein levels and glutamate uptake were both dose-dependent (FIG. 8C). This induction was not due to transcriptional activation because EAAT2 mRNA was not increased as measured by quantitative real-time RT-PCR (FIG. 8D). We compared ceftriaxone (200 mg/kg), which increases EAAT2 expression through transcriptional activation, with Compound 212320 (40 mg/kg) that activates EAAT2 translation.
On the technique in general: In qPCR the cycle at which signal appears reflects the starting amount.

The subject of assay [3] is All other targets (seventy-one targets tested). Put plainly: In vitro side effect profiling: all other of seventy-one targets. Conditions: 10 μM, duplicate. On the procedure:
To assess Compound 212320's biological activity and selectivity, we performed an in vitro side effect profiling study. Seventy-one targets were tested at 10 μM in duplicate. These targets include neurotransmitter related receptors (30), steroids (2), ion channels (6), second messenger (1), prostaglandins (3), growth factors/hormones (4), brain/gut peptides (13), enzymes (5) and cytochrome p450 (7). […] Additionally, we performed a protein kinase profiling study. Compound 212320 was tested at 1 and 10 μM against 288 kinases. […] These studies indicate that Compound 212320 has high specificity and low side-effects/toxicity potential.

Setting [4] is: i.p., 40 mg/kg daily from 84 days of age.

As for `Cc1ccccc1CSc1ccc(-c2ccccn2)nn1` [Compound 7-4], in the assay on EAAT2 [1] (PA-EAAT2 cells), the “Concentrations at which EAAT2 induction occurred” value is recorded as “low nanomolar” and the “Time in which EAAT2 induction occurred” value was in the range of 1 to 2 h. For the same compound, the “Time up to which EAAT2 induction was sustained” value in the assay with EAAT2 [1] (PA-EAAT2 cells, data not shown) is on record as “up to 72 hr”. Also, the EAAT2 protein levels entry in the assay with EAAT2 [1] (PA-EAAT2 cells, dose- and time-dependent manner (FIG. 6B, 6C)) is reported as “increased”. Moreover, the “Fold increase for EAAT2, 4 h” value in the assay with EAAT2 [1] (compound 10 μM, 4 h incubation, PA-EAAT2 cells, relative to DMSO controls, na = not active) worked out at 1.7 ± 0.1 fold. For the same compound, in the assay with EAAT2 [1] (compound 10 μM, 24 h incubation, PA-EAAT2 cells, relative to DMSO controls, na = not active), the “Fold increase for EAAT2, 24 h” value stood at 3.5 ± 0.3 fold. In addition, the “SAR comparison of activity on EAAT2 protein levels, in words” value with EAAT2 [1] (relative to parent/comparator analogue, Tables 1-4) is “increased potency”. Moreover, the Glutamate uptake function entry with EAAT2 [2] was “correlated to increased EAAT2 protein levels”. Further, the “EAAT2 protein levels in spinal cord (western blot)” value in the assay on SOD1(G93A) mice (120-day-old mice) was “restores”. Moreover, in the assay on SOD1(G93A) mice (setting [4]), the “Life span (survival)” value was “extended” and the “Motor function decline (grip strength)” value was “delayed”. In the assay on EAAT2 mRNA, the “EAAT2 mRNA” value is reported as “not increased”. The “inhibition, all other targets” value in assay [3] is reported as less than 30%.
